Test: Active ingredient solubility tests in various solvents
Format: physicochemical
Protocol: The solubility of {4-[6-ethyl-4′-(1-ethyl-1-hydroxypropyl)-2′-propylbiphenyl-3-yloxymethyl]-2-hydroxymethylphenyl}methanol was tested in various solvents.

- Max sol (% w/w) (in Arlamol E): 1.033 % w/w
- Max sol (% w/w) (in Cremophor RH40): 3.989 % w/w
- Max sol (% w/w) (in Ethanol 95): >20 % w/w
- Max sol (% w/w) (in Eutanol G): 0.322 % w/w
- Max sol (% w/w) (in IPP): 0.1654 % w/w
- Max sol (% w/w) (in Labrafil M1944CS): 0.936 % w/w
- Max sol (% w/w) (in Miglyol 812): 0.3167 % w/w
- Max sol (% w/w) (in PEG 400): 6.894 % w/w
- Max sol (% w/w) (in Primol 352): 0.0009 % w/w
- Max sol (% w/w) (in Propylene Glycol): 2.3351 % w/w
- Max sol (% w/w) (in Sweet almond oil): 0.0932 % w/w
- Max sol (% w/w) (in Transcutol): >20 % w/w
SMILES: CCCc1cc(C(O)(CC)CC)ccc1-c1cc(OCc2ccc(CO)c(CO)c2)ccc1CC [compound 3, {4-[6-ethyl-4′-(1-ethyl-1-hydroxypropyl)-2′-propylbiphenyl-3-yloxymethyl]-2-hydroxymethylphenyl}methanol]
